Assay results taken from the NIST ThermoML archive (doi:10.1021/acs.jced.9b00668).

What was measured:
[1] = Liquid; for mass density: 298.15 K, 101.3 kPa, Vibrating tube method; for vapor or sublimation pressure: Ebulliometric method (Recirculating still)
[2] = refractive index (Na D-line) (dimensionless); details: 298.15 K; 101.3 kPa; Liquid; Standard Abbe refractometry
[3] = xn = mol fraction of the nth substance listed; details: 298.15 K, 101.3 kPa, Liquid, Vibrating tube method

COC(C)=O [methyl ethanoate]
Details | mass density [kg/m3] | refractive index
[1] | 927.1 | –
[2] | – | 1.35875

[1]
Details | vapor or sublimation pressure [kPa]
329.99 K | 100
436.08 K | 1500

CC(C)CC(C)(C)C [2,2,4-trimethylpentane] + COC(C)=O
Details | mass density [kg/m3]
[3], x2 = 0 | 687.8

CCOC(C)=O [ethyl acetate] + CC(C)CC(C)(C)C
Details | mass density [kg/m3]
[3], x1 = 1 | 894.4

COC(C)=O [methyl ethanoate] + CCCCCCC
[3]
Details | mass density [kg/m3]
x1 = 0.0579 | 685.5
x1 = 0.0789 | 687.8
x1 = 0.0926 | 689.7
x1 = 0.1276 | 694.1
x1 = 0.1562 | 697.4
x1 = 0.1662 | 698.8
x1 = 0.1998 | 703.2
x1 = 0.2413 | 709.3
x1 = 0.2652 | 712.7
x1 = 0.2914 | 716.8
x1 = 0.3583 | 728.4
x1 = 0.4171 | 739
x1 = 0.43 | 741.6
x1 = 0.4682 | 749.3
x1 = 0.506 | 757.3
x1 = 0.5357 | 764
x1 = 0.584 | 775.6
x1 = 0.6338 | 788.4
x1 = 0.715 | 811.7
x1 = 0.7194 | 813
x1 = 0.7256 | 814.9
x1 = 0.7698 | 829
x1 = 0.7996 | 839.2
x1 = 0.8104 | 843.3
x1 = 0.8285 | 850.2
x1 = 0.8537 | 859.8
x1 = 0.8558 | 860.5
x1 = 0.8898 | 874.1
x1 = 0.901 | 879.1
x1 = 0.9172 | 885.8
x1 = 0.9284 | 890.8
x1 = 0.9598 | 905.6
x1 = 0.9631 | 907.4
x1 = 0.9735 | 912.8
x1 = 1 | 927.1

CC(C)CC(C)(C)C [2,2,4-trimethylpentane] + CCOC(C)=O
[3]
Details | mass density [kg/m3]
x2 = 0 | 687.8
x2 = 0.0627 | 694.4
x2 = 0.1027 | 699
x2 = 0.1524 | 704.9
x2 = 0.2008 | 711.1
x2 = 0.272 | 721
x2 = 0.3528 | 733.3
x2 = 0.386 | 738.7
x2 = 0.4349 | 747.1
x2 = 0.4568 | 751
x2 = 0.5071 | 760.4
x2 = 0.5362 | 766.1
x2 = 0.6042 | 780.2
x2 = 0.7014 | 802.6
x2 = 0.7603 | 817.7
x2 = 0.8488 | 842.7
x2 = 0.8968 | 857.9
x2 = 0.9273 | 868.1
x2 = 0.9465 | 874.7

CCCCCCC [heptane] + COC(C)=O
Details | mass density [kg/m3]
[3], x2 = 0 | 679.7

COC(C)=O [methyl ethanoate] + CC(C)CC(C)(C)C
[3]
Details | mass density [kg/m3]
x1 = 0.0646 | 693.5
x1 = 0.0822 | 695.3
x1 = 0.0859 | 695.7
x1 = 0.0992 | 697
x1 = 0.1566 | 703.6
x1 = 0.1941 | 707.9
x1 = 0.208 | 709.7
x1 = 0.224 | 711.7
x1 = 0.2636 | 717.1
x1 = 0.2688 | 717.7
x1 = 0.2957 | 721.6
x1 = 0.3211 | 725.4
x1 = 0.3319 | 727
x1 = 0.3956 | 737.4
x1 = 0.5015 | 757.3
x1 = 0.578 | 774
x1 = 0.5792 | 774.3
x1 = 0.6528 | 792.8
x1 = 0.6958 | 804.5
x1 = 0.7268 | 813.9
x1 = 0.7611 | 824.8
x1 = 0.7834 | 832.2
x1 = 0.8161 | 843.6
x1 = 0.8466 | 855.3
x1 = 0.848 | 855.8
x1 = 0.8628 | 861.6
x1 = 0.8632 | 861.9
x1 = 0.8889 | 872.5
x1 = 0.9179 | 885.5
x1 = 0.9388 | 895.1
x1 = 0.9406 | 895.7
x1 = 0.9456 | 898.3
x1 = 0.9574 | 904.3
x1 = 1 | 927.1

CCOC(C)=O [ethyl acetate] + CCCCCCC
[3]
Details | mass density [kg/m3]
x1 = 0.0642 | 687.5
x1 = 0.071 | 688.3
x1 = 0.125 | 695.2
x1 = 0.1274 | 695.8
x1 = 0.1932 | 705.1
x1 = 0.2136 | 708.2
x1 = 0.3294 | 726.7
x1 = 0.3874 | 736.7
x1 = 0.4593 | 750.2
x1 = 0.5966 | 778.8
x1 = 0.6582 | 793.2
x1 = 0.6841 | 799.3
x1 = 0.7001 | 803.7
x1 = 0.7346 | 812.6
x1 = 0.8029 | 830.8
x1 = 0.8272 | 837.6
x1 = 0.8471 | 843.6
x1 = 0.9069 | 862.1
x1 = 0.9631 | 880.7
x1 = 1 | 894.4

CCOC(C)=O [ethyl acetate]
Details | mass density [kg/m3] | refractive index
[1] | 894.4 | –
[2] | – | 1.36981

[1]
Details | vapor or sublimation pressure [kPa]
350.19 K | 100
462.75 K | 1500

CC(C)CC(C)(C)C [2,2,4-trimethylpentane]
Details | mass density [kg/m3] | refractive index
[1] | 687.8 | –
[2] | – | 1.38905

[1]
Details | vapor or sublimation pressure [kPa]
371.91 K | 100
504.65 K | 1500

CCCCCCC [heptane] + CCOC(C)=O
Details | mass density [kg/m3]
[3], x2 = 0 | 679.7

CCCCCCC [heptane]
Details | mass density [kg/m3] | refractive index
[1] | 679.7 | –
[2] | – | 1.38527

Details | vapor or sublimation pressure [kPa]
[1], 498.65 K | 1500
